{"source": "paper PMC8879496", "about": "(Pharmaceutics, 2022)", "key": {"[1]": {"experiment": "Liver microsomal metabolic stability, mouse", "type": "in vitro ADME", "conditions": "mouse liver microsomes 0.5 mg protein/mL, 1 μM, 37 °C", "method": "(§1) Liver microsome samples (0.5 mg protein/mL) from mouse, rat, and human (Corning, Glendale, AZ, USA) in PBS and the test compound (final concentration 1 μM) were mixed. Following the addition of the NADPH regenerating solution (Corning), the samples were incubated at 37 °C for 30 min. The reaction was stopped by the addition of ice-cold acetonitrile, and the samples were centrifuged at 4000 rpm for 15 min."}, "[2]": {"tested_on": "C57BL/6 mice", "experiment": "Five-day repeated-dose toxicity study", "conditions": "male and female mice; for clinical signs and animal death: IP 10 mg/kg, observed for 6 days; for approximately lethal dose: IP 10 mg/kg/day for 5 days"}, "[3]": {"tested_on": "SARS-CoV-2", "experiment": "microbe, parasite or virus in culture", "type": "cell-based", "conditions": "Severe acute respiratory syndrome coronavirus 2, Vero, 24 h; read-out: IC50, SARS-CoV-2 inhibition"}, "[4]": {"experiment": "in vitro", "conditions": "African green monkey"}, "[5]": {"target": "CYP3A4 (Homo sapiens, UniProt P08684)", "sequence (P08684 whole entry)": "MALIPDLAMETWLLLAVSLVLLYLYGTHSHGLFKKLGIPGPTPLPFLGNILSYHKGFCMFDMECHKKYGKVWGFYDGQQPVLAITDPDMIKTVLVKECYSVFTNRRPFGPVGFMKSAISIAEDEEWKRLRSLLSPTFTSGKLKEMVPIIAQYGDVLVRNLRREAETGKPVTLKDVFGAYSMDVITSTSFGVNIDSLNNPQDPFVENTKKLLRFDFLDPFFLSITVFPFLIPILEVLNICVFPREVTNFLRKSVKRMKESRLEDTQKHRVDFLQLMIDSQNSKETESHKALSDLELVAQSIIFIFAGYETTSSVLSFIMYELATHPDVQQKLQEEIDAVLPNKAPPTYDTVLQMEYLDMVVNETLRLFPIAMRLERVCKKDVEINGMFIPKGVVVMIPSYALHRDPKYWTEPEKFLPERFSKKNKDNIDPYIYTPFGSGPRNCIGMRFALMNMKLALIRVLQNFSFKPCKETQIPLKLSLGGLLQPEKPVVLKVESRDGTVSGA", "experiment": "CYP450 enzyme inhibition, CYP3A4"}, "[6]": {"tested_on": "influenza virus", "conditions": "read-out: IC50, anti-influenza virus activity; cited from earlier work"}, "[7]": {"experiment": "Plasma stability, human", "type": "in vitro ADME", "conditions": "37 °C, read-out: Plasma Stability (% Remaining), Hum", "method": "(§2) Animal plasma (Innovative Research, Inc., Novi, MI, USA) and test compounds (5 μM) were incubated at 37 °C for 4 h. To prevent the reaction, cold acetonitrile was added."}, "[8]": {"tested_on": "SARS-CoV", "experiment": "microbe, parasite or virus in culture", "type": "cell-based", "conditions": "Severe acute respiratory syndrome coronavirus, Vero, 24 h, read-out: IC50, SARS-CoV inhibition"}, "[9]": {"tested_on": "NA of H5N1 influenza virus", "conditions": "cited from earlier work"}, "[10]": {"experiment": "Pharmacokinetic study in mice", "type": "in vivo", "conditions": "for Cmax / Tmax: n = 3", "method": "Seven-week-old male ICR mice were purchased from Nara Bio Co., Ltd. (Pyungtaek, Korea) and housed under 24 °C, 50% humidity, and 12 h day/night cycle conditions with access to standard chow and drinking water. Mice were acclimated for 1 week before the experiments. All animal procedures were approved by the KRICT Animal Care and Use Committee (ACUC approval number, DDP-7221). A total of 10 mg/kg of compound in a 5:40:55 ratio of DMSO:PEG400:DW was intraperitoneally or orally administered (n = 3). Blood samples were collected at 0.083–24 h after drug administration through the retro-orbital venous plexus and the plasma fraction was separated by centrifugation (15,000 rpm, 3 min). […] Mean plasma concentration–time data were calculated using noncompartmental methods (Phoenix WinNonlin software version 6.4; Pharsight Corporation, Mountain View, CA, USA)."}, "[11]": {"target": "hERG K+ channel (Homo sapiens, UniProt Q12809)", "sequence (Q12809 whole entry)": "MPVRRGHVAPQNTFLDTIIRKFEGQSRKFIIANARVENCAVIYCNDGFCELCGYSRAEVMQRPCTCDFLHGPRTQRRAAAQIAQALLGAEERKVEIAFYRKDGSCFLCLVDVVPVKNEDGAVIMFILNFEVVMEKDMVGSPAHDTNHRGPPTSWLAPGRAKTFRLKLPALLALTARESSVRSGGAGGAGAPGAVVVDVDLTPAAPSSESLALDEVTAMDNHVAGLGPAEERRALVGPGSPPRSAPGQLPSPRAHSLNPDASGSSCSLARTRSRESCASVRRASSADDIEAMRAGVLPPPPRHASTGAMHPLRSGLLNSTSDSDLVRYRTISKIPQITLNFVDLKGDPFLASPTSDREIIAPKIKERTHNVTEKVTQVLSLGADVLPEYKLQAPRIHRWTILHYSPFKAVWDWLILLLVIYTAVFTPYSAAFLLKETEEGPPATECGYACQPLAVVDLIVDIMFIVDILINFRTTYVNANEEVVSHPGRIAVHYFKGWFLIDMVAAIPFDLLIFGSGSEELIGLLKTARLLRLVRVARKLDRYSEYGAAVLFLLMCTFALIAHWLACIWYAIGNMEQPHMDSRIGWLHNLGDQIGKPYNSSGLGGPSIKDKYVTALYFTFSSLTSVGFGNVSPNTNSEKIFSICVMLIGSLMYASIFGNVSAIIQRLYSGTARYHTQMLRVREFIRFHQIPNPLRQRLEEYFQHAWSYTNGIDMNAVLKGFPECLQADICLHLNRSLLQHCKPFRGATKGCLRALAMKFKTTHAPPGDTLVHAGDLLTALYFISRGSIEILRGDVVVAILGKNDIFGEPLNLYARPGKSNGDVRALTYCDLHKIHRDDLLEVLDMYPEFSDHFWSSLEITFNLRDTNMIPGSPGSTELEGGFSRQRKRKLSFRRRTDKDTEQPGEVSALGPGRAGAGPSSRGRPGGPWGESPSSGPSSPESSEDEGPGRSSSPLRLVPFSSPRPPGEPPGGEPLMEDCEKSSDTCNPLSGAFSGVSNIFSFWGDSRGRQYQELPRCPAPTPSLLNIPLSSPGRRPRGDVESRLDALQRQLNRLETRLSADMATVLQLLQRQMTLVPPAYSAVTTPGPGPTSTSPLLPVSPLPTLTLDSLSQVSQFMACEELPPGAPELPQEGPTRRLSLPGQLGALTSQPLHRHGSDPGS", "experiment": "hERG K+ channel automated planar patch clamp assay"}, "[12]": {"target": "CYP2D6 (Homo sapiens, UniProt P10635)", "sequence (P10635 whole entry)": "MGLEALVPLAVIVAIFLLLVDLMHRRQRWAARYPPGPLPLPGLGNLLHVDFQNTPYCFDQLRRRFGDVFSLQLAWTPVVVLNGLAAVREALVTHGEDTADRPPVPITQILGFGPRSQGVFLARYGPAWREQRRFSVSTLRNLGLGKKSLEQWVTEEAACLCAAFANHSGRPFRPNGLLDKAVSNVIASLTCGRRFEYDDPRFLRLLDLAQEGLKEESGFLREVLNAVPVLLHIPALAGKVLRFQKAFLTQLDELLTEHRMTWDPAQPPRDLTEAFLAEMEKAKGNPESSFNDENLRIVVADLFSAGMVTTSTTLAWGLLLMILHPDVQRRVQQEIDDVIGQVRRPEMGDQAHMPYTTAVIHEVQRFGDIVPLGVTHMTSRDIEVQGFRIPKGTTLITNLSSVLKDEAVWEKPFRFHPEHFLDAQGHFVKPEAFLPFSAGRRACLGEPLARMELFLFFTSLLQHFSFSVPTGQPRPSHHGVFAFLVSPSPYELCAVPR", "experiment": "CYP450 enzyme inhibition, CYP2D6"}, "[13]": {"target": "SARS-CoV-2 Mpro (Severe acute respiratory syndrome coronavirus 2, UniProt P0DTD1)", "experiment": "SARS-CoV-2 Mpro activity assay (assay kit, fluorescence)", "type": "biochemical", "method": "SARS-CoV-2 Mpro activity was measured using the SARS-CoV-2 Mpro assay kit (BPS Bioscience, San Diego, CA, USA) according to the manufacturer’s instructions. The samples were evaluated in duplicated, serially diluted concentrations. The fluorescence intensity of low binding, black, 96-well microtiter plates was detected at an excitation wavelength of 360 nm and an emission wavelength of 460 nm using a microplate spectrophotometer (Bio-Tek, Winooski, VT, USA)."}, "[14]": {"target": "T1, CYP1A2 (Homo sapiens, UniProt P05177)", "T1 sequence (P05177 1-516)": "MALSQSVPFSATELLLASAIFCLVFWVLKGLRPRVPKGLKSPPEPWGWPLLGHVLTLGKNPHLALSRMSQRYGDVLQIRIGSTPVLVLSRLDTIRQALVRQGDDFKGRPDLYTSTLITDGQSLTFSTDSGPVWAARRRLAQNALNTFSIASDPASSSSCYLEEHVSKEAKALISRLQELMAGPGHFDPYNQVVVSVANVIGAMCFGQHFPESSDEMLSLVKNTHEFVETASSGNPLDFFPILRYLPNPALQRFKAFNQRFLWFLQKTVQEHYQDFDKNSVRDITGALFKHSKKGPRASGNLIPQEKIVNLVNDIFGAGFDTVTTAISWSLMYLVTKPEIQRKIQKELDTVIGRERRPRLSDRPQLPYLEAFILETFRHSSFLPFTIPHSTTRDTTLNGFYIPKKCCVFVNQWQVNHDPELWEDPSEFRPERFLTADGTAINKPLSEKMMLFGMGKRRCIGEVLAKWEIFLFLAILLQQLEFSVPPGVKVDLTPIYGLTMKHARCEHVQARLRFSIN", "experiment": "CYP450 enzyme inhibition, CYP1A2"}, "[15]": {"experiment": "Liver microsomal metabolic stability, human", "type": "in vitro ADME", "conditions": "human liver microsomes 0.5 mg protein/mL, 1 μM, 37 °C", "method": "as §1"}, "[16]": {"experiment": "Plasma stability, rat", "type": "in vitro ADME", "conditions": "37 °C", "method": "as §2"}, "[17]": {"target": "CYP2C19 (Homo sapiens, UniProt P33261)", "sequence (P33261 whole entry)": "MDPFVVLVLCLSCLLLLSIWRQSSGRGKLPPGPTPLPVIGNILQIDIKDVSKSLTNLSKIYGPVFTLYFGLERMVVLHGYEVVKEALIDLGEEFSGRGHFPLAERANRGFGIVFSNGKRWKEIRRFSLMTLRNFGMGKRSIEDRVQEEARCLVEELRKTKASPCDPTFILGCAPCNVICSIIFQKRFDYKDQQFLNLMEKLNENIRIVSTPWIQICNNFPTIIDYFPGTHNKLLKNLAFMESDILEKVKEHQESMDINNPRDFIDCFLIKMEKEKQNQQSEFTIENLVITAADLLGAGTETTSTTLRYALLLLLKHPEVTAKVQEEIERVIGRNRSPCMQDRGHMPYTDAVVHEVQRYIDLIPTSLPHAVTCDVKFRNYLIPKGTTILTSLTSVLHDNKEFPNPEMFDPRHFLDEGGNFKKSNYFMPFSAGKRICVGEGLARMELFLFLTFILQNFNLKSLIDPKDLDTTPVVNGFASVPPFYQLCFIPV", "experiment": "CYP450 enzyme inhibition, CYP2C19"}, "[18]": {"target": "CYP2C9 (Homo sapiens, UniProt P11712)", "sequence (P11712 whole entry)": "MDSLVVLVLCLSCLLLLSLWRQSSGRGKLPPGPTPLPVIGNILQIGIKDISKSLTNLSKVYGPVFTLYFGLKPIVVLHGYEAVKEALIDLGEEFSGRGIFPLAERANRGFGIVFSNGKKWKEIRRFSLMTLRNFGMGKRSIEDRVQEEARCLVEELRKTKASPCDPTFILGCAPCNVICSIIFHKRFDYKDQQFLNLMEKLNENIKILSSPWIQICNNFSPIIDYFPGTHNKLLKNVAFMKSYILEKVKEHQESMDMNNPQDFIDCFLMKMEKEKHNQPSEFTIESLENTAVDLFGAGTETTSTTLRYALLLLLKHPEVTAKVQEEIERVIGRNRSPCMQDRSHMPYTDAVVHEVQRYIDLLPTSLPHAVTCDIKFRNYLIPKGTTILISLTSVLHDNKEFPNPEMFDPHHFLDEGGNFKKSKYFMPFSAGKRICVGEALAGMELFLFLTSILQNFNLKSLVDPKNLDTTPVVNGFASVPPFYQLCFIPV", "experiment": "CYP450 enzyme inhibition, CYP2C9"}, "[19]": {"tested_on": "MERS-CoV", "experiment": "microbe, parasite or virus in culture", "type": "cell-based", "conditions": "Middle East respiratory syndrome-related coronavirus, Vero, 24 h, read-out: IC50, MERS-CoV inhibition, Vero cells, 0.0625 MOI, 24 h post-infection, spike staining"}, "[20]": {"experiment": "Liver microsomal metabolic stability, rat", "type": "in vitro ADME", "conditions": "rat liver microsomes 0.5 mg protein/mL, 1 μM, 37 °C", "method": "as §1"}, "[21]": {"conditions": "male, ICR, mouse, plasma, IP 10 mg/kg"}, "[22]": {"conditions": "male, ICR, mouse, plasma, PO 10 mg/kg"}}, "note": "Where two headings read alike, the source gives them in different places.", "data": [{"compound": "CCCC(=O)c1c(O)c(CC2=C(O)C(C)(C)C(O)=C(C(C)=O)C2=O)c(O)c(Cc2c(O)c(CC3=C(O)C(C)(C)C(O)=C(C(C)=O)C3=O)c(O)c(C(=O)CCC)c2O)c1O", "note": "[dryocrassin ABBA, Dryocrassin ABBA]", "values": [{"measurement": "MS (%) (Remaining after 30 min), Mice", "setting": "[1]", "result": "68.3 ± 2.1", "unit": "%"}, {"measurement": "clinical signs and animal death", "setting": "[2]", "result": "No abnormal clinical signs and animal death"}, {"measurement": "approximately lethal dose", "setting": "[2]", "result": "> 10", "unit": "mg/kg"}, {"measurement": "IC50", "setting": "[3]", "result": "22.4 ± 0.73", "unit": "µM"}, {"measurement": "CC50", "setting": "[4]", "result": "> 50", "unit": "µM"}, {"measurement": "IC50", "setting": "[5]", "result": 8.33, "unit": "µM"}, {"measurement": "IC50", "setting": "[6]", "result": 16.5, "unit": "µM"}, {"measurement": "remaining at 4 h, 5 μM", "setting": "[7]", "result": "29.7 ± 8.37", "unit": "%"}, {"measurement": "IC50", "setting": "[8]", "result": "0.8 ± 0.07", "unit": "µM"}, {"measurement": "IC50", "setting": "[9]", "result": "18.6 ± 4.53", "unit": "µM"}, {"measurement": "AUC", "setting": "[10]; IP 10 mg/kg, n = 3, 10 mg/kg", "result": "65960 ± 8630", "unit": "ng·h/mL"}, {"measurement": "Cmax", "setting": "[10]; [21]", "result": "12800 ± 1790", "unit": "ng/mL"}, {"measurement": "Tmax", "setting": "[10]; [21]", "result": "1.17 ± 0.76", "unit": "h"}, {"measurement": "half-life", "setting": "[10]; male, ICR, mouse, plasma, IP 10 mg/kg, n = 3, read-out: T1/2 (converted)", "result": "5.5 ± 0.56", "unit": "h"}, {"measurement": "Cmax", "setting": "[10]; [22]", "result": "3640 ± 570", "unit": "ng/mL"}, {"measurement": "Tmax", "setting": "[10]; [22]", "result": "0.67 ± 0.29", "unit": "h"}, {"measurement": "half-life", "setting": "[10]; male, ICR, mouse, plasma, PO 10 mg/kg, n = 3, read-out: T1/2 (converted)", "result": "12.6 ± 3.76", "unit": "h"}, {"measurement": "AUC", "setting": "[10]; male, ICR, mouse, plasma, ip, 10 mg/kg, IP 10 mg/kg, n = 3, read-out: AUC", "result": 65000, "unit": "ng·h/mL"}, {"measurement": "AUC", "setting": "[10]; male, ICR, mouse, plasma, other: intraperitoneal and oral (range over both arms), 10 mg/kg, in vivo, span over IP and PO 10 mg/kg (abstract), read-out: plasma exposure (AUC)", "result": "19300 to 65000", "unit": "ng·h/mL"}, {"measurement": "half-life", "setting": "[10]; male, ICR, mouse, plasma, other: intraperitoneal and oral (range over both arms), in vivo, span over IP and PO 10 mg/kg (abstract), read-out: half-life", "result": "5.5 to 12.6", "unit": "h"}, {"measurement": "AUC", "setting": "[10]; male, ICR, mouse, plasma, po, 10 mg/kg, PO 10 mg/kg, n = 3, read-out: AUC", "result": "19300 ± 1420", "unit": "ng·h/mL"}, {"measurement": "inhibition at 10 µM", "setting": "[11]", "result": 7.27, "unit": "%"}, {"measurement": "IC50", "setting": "[12]", "result": 13.5, "unit": "µM"}, {"measurement": "IC50", "setting": "[13]", "result": "46.5 ± 1.1", "unit": "µM"}, {"measurement": "IC50", "setting": "[14]", "result": 14.7, "unit": "µM"}, {"measurement": "MS (%) (Remaining after 30 min), Hum", "setting": "[15]", "result": ">99", "unit": "%"}, {"measurement": "remaining at 4 h, 5 μM", "setting": "[16]", "result": "67 ± 7.29", "unit": "%"}, {"measurement": "IC50", "setting": "[17]", "result": 16.1, "unit": "µM"}, {"measurement": "IC50", "setting": "[18]", "result": 0.4, "unit": "µM"}, {"measurement": "IC50", "setting": "[19]", "result": "1.31 ± 0.07", "unit": "µM"}, {"measurement": "MS (%) (Remaining after 30 min), Rat", "setting": "[20]", "result": ">99", "unit": "%"}]}, {"compound": "CCCC(=O)c1c(O)c(CC2=C(O)C(C)(C)C(O)=C(C(C)=O)C2=O)c(O)c(CC2=C(O)C(C)(C)C(O)=C(C(C)=O)C2=O)c1O", "note": "[filixic acid ABA]", "values": [{"measurement": "clinical signs and animal death", "setting": "[2]", "result": "No abnormal clinical signs and animal death"}, {"measurement": "approximately lethal dose", "setting": "[2]", "result": "> 10", "unit": "mg/kg"}, {"measurement": "IC50", "setting": "[3]", "result": "25.9 ± 0.81", "unit": "µM"}, {"measurement": "CC50", "setting": "[4]", "result": "> 50", "unit": "µM"}, {"measurement": "IC50", "setting": "[8]", "result": "4.56 ± 0.21", "unit": "µM"}, {"measurement": "IC50", "setting": "[9]", "result": "29.6 ± 2.48", "unit": "µM"}, {"measurement": "IC50", "setting": "[13]; serially diluted compounds 3.125–100 μM, mean ± SEM, read-out: IC50, SARS-CoV-2 Mpro (3CL) activity", "result": "39.6 ± 1.09", "unit": "µM"}, {"measurement": "IC50", "setting": "[19]", "result": "2.68 ± 0.1", "unit": "µM"}]}]}
